Laboratory results from patent US11065253B2, “Arylquinazolines” (Merck Patent GmbH, priority 2013, dated 2021).

Test system: phospho-serine 2056 DNA-PK in HCT116 cells
Test: DNA-PK phosphorylation at serine 2056 (cellular), ELISA in bleomycin-treated HCT116 cells
Assay type: cell-based
Conditions: Homo sapiens, HCT-116, 6 h, cellular; HCT116 cells, 10 μM bleomycin, six hours; read-out: IC50 pDNA-PK
Outline: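 Test compounds and bleomycin (10 μM) are added to adherent HCT116 cells for 6 h. Detection uses an HRP-based chemiluminescent ELISA, with phospho-DNA-PK signals standardised to total protein.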

| Compound | IC50 |
| --- | --- |
| OC(c1cccnn1)c1cc(-c2ncnc3cc(N4CCOCC4)ccc23)c(F)cc1F (stereo not shown) [Example 48, [2,4-Difluoro-5-(7-morpholin-4-yl-quinazolin-4-yl)phenyl]-pyridazin-3-ylmethanol] | 0.5 to 5 µM |
| O=c1ccc(C(O)c2cc(-c3ncnc4cc(N5CCOCC5)ccc34)c(F)cc2Cl)nn1CCO (stereo not shown) [Example 99, 6-{[2-Chloro-4-fluoro-5-(7-morpholin-4-yl-quinazolin-4-yl)phenyl]-hydroxymethyl}-2-(2-hydroxy-ethyl)-2H-pyridazin-3-one] | 0.5 to 5 µM |

Further lines, results first:

| IC50 | Compound |
| --- | --- |
| 0.5 to 5 µM | OC(c1ccc(F)c(-c2ncnc3cc(N4CCOCC4)ccc23)c1)c1c(F)cncc1F (stereo not shown) [Example 1, (3,5-Difluoropyridin-4-yl)-[4-fluoro-3-(7-morpholin-4-ylquinazolin-4-yl)phenyl]methanol] |
| < 0.5 µM | COc1cncnc1C(O)c1ccc(F)c(-c2ncnc3cc(N4CCOCC4)ccc23)c1 (stereo not shown) [Example 87, [4-Fluoro-3-(7-morpholin-4-yl-quinazolin-4-yl)-phenyl]-(5-methoxy-pyrimidin-4-yl)-methanol] |
| 10 to 30 µM | OC(c1ccc(F)c(-c2ncnc3cc(N4CCOCC4)ccc23)c1)c1cnccn1 (stereo not shown) [Example 33, [4-Fluoro-3-(7-morpholin-4-yl-quinazolin-4-yl)phenyl]-pyrazin-2-ylmethanol] |
| 5 to 10 µM | OC(c1cnccn1)c1cc(-c2ncnc3cc(N4CCOCC4)ccc23)c(F)cc1Cl (stereo not shown) [Example 34, [2-Chloro-4-fluoro-5-(7-morpholin-4-yl-quinazolin-4-yl)phenyl]-pyrazin-2-ylmethanol] |
| < 0.5 µM | OC(c1ccc(F)c(-c2ncnc3cc(N4CCOCC4)ccc23)c1)c1cncc(F)c1Cl (stereo not shown) [Example 2, (4-Chloro-5-fluoropyridin-3-yl)-[4-fluoro-3-(7-morpholin-4-ylquinazolin-4-yl)phenyl]methanol] |

Same assay, conditions: Homo sapiens, HCT-116, cellular DNA-PK phosphorylation at serine 2056, HCT116 cells; read-out: IC50 pDNA-PK

| Compound | IC50 |
| --- | --- |
| COc1cncnc1C(O)c1cc(-c2ncnc3cc(N4CCOCC4)ccc23)c(F)cc1Cl (stereo not shown) [Example 447, [2-Chloro-4-fluoro-5-(7-morpholin-4-yl-quinazolin-4-yl)-phenyl]-(5-methoxy-pyrimidin-4-yl)-methanol] | 0.5 to 5 µM |
| Cn1c(C(O)c2cc(-c3ncnc4cc(N5CCOCC5)ccc34)ccc2Cl)cccc1=O (stereo not shown) [Example 400, 6-{[2-Chloro-5-(7-morpholin-4-yl-quinazolin-4-yl)-phenyl]hydroxy-methyl}-1-methyl-1H-pyridin-2-one] | < 0.5 µM |
| OC(c1cc(-c2ncnc3cc(N4CCOCC4)ccc23)ccc1Cl)c1nccn2ccnc12 (stereo not shown) [Example 369, [2-Chloro-5-(7-morpholin-4-yl-quinazolin-4-yl)-phenyl]imidazo-[1,2-a]pyrazin-8-yl-methanol] | 5 to 10 µM |

More lines, now with the values ahead:

| IC50 | Compound |
| --- | --- |
| 10 to 30 µM | O=C1CCCN1c1nccnc1C(O)c1ccc(F)c(-c2ncnc3cc(N4CCOCC4)ccc23)c1 (stereo not shown) [Example 425, 1-(3-{[4-Fluoro-3-(7-morpholin-4-yl-quinazolin-4-yl)-phenyl]hydroxy-methyl}pyrazin-2-yl)-pyrrolidin-2-one] |
| 0.5 to 5 µM | OC(c1cc(-c2ncnc3cc(N4CCOCC4)ccc23)ccc1F)c1nccn2ccnc12 (stereo not shown) [Example 372, [2-Fluoro-5-(7-morpholin-4-yl-quinazolin-4-yl)-phenyl]imidazo-[1,2-a]pyrazin-8-yl-methanol] |
| < 0.5 µM | OC(c1cc(-c2ncnc3cc(N4CCOCC4)ccc23)ccc1F)c1ncnc2sccc12 (stereo not shown) [Example 406, [2-Fluoro-5-(7-morpholin-4-yl-quinazolin-4-yl)-phenyl]thieno[2,3-d}-pyrimidin-4-yl-methanol] |
| < 0.5 µM | Cn1cnc2ccnc(C(O)c3ccc(F)c(-c4ncnc5cc(N6CCOCC6)ccc45)c3)c21 (stereo not shown) [Example 461, [4-Fluoro-3-(7-morpholin-4-yl-quinazolin-4-yl)-phenyl]-(3-methyl-3H-imidazo[4,5-c]-pyridin-4-yl)methanol] |

Same assay, conditions: Homo sapiens, HCT-116, phospho-serine 2056 DNA-PK, bleomycin-treated HCT116 cells; class symbols A-D; read-out: IC50 pDNA-PK

| Compound | IC50 |
| --- | --- |
| COc1ccc(C(O)c2cc(-c3ncnc4cc(N5CCOCC5)ccc34)c(F)cc2Cl)nn1 (stereo not shown) [Example 137, [2-Chloro-4-fluoro-5-(7-morpholin-4-ylquinazolin-4-yl)-phenyl]-(6-methoxy-pyridazin-3-yl)-methanol] | 0.5 to 5 µM |
| COc1ccc(C(C)(O)c2cc(-c3ncnc4cc(N5CCOCC5)ccc34)c(F)cc2Cl)nn1 (stereo not shown) [Example 125, 1-[2-Chloro-4-fluoro-5-(7-morpholin-4-yl-quinazolin-4-yl)-phenyl]-1-(6-methoxy-pyridazin-3-yl)-ethanol] | 10 to 30 µM |
| COc1ccc(C(O)c2cc(-c3ncnc4cc(N5CCOCC5)ccc34)c(F)cc2F)c(F)c1 (stereo not shown) [Example 124, [2,4-Difluoro-5-(7-morpholin-4-yl-quinazolin-4-yl)-phenyl]-(2-fluoro-4-methoxy-phenyl)methanol] | 0.5 to 5 µM |

More lines, now with the values ahead:

| IC50 | Compound |
| --- | --- |
| 10 to 30 µM | OCCOc1nccnc1C(O)c1ccc(F)c(-c2ncnc3cc(N4CCOCC4)ccc23)c1 (stereo not shown) [Example 105, 2-(3-{[4-fluoro-3-(7-morpholin-4-yl-quinazolin-4-yl)-phenyl]hydroxy-methyl}pyrazin-2-yl-oxy)ethanol] |
| 0.5 to 5 µM | Nc1nccnc1C(O)c1cc(-c2ncnc3cc(N4CCOCC4)ccc23)c(F)cc1Cl (stereo not shown) [Example 117, (3-Amino-pyrazin-2-yl)-[2-chloro-4-fluoro-5-(7-morpholin-4-yl-quinazolin-4-yl)-phenyl]methanol] |

Same assay, conditions: Homo sapiens, HCT-116, phospho-serine 2056 DNA-PK, bleomycin-treated HCT116 cells; read-out: IC50 pDNA-PK

| Compound | IC50 |
| --- | --- |
| NC(=O)C(c1cccnn1)c1cc(-c2ncnc3cc(N4CCOCC4)ccc23)c(F)cc1Cl (stereo not shown) [Example 300, 2-[2-Chloro-4-fluoro-5-(7-morpholin-4-yl-quinazolin-4-yl)-phenyl]-2-pyridazin-3-ylacetamide] | 10 to 30 µM |
| OC(c1cc(-c2ncnc3cc(N4CCOCC4)ccc23)c(F)cc1F)c1nncc2sccc12 (stereo not shown) [Example 341, [2,4-Difluoro-5-(7-morpholin-4-yl-quinazolin-4-yl)-phenyl]thieno[2,3-d}-pyridazin-4-yl-methanol] | < 0.5 µM |

Second part, the compound after the results:

| IC50 | Compound |
| --- | --- |
| < 0.5 µM | OC(c1ccc(F)c(-c2ncnc3cc(N4CCOCC4)ccc23)c1)c1nncc2ccsc12 (stereo not shown) [Example 332, [4-Fluoro-3-(7-morpholin-4-yl-quinazolin-4-yl)-phenyl]thieno[2,3-d}-pyridazin-7-yl-] |
| < 0.5 µM | Cc1cnc(C(O)c2ccc(F)c(-c3ncnc4cc(N5CCOCC5)ccc34)c2)c(C)n1 (stereo not shown) [Example 354, (3,5-Dimethyl-pyrazin-2-yl)-[4-fluoro-3-(7-morpholin-4-yl-quinazolin-4-yl)-phenyl]methanol] |
| < 0.5 µM | [2H]c1c(N2CCOCC2)cc2ncnc(-c3cc(C(O)c4nccnc4C)ccc3F)c2c1[2H] (stereo not shown) [Example 226, [3-(5,6-Dideuterio-7-morpholino-quinazolin-4-yl)-4-fluorophenyl]-(3-methylpyrazin-2-yl)-methanol] |
| < 0.5 µM | OC(c1ccc(F)c(-c2ncnc3cc(N4CCOCC4)ccc23)c1)c1ncnn2cccc12 (stereo not shown) [Example 345, [4-Fluoro-3-(7-morpholin-4-yl-quinazolin-4-yl)-phenyl]pyrrolo[2,1-f]-[1,2,4]triazin-4-yl-methanol] |
| 5 to 10 µM | NC(=O)C(c1ccc(F)c(-c2ncnc3cc(N4CCOCC4)ccc23)c1)c1nnc(Cl)c2sccc12 (stereo not shown) [Example 291, 2-(7-Chlorothieno-[2,3-d}pyridazin-4-yl)-2-[4-fluoro-3-(7-morpholin-4-yl-quinazolin-4-yl)-phenyl]acetamide] |
| 0.5 to 5 µM | Cc1ncc(C(O)c2ccc(F)c(-c3ncnc4cc(N5CCOCC5)ccc34)c2)nc1C (stereo not shown) [Example 314, (5,6-Dimethyl-pyrazin-2-yl)-[4-fluoro-3-(7-morpholin-4-yl-quinazolin-4-yl)-phenyl]methanol] |

Same assay, conditions: cellular DNA-PK phosphorylation at serine 2056, HCT116 cells; read-out: IC50 pDNA-PK

| Compound | IC50 |
| --- | --- |
| COc1nccnc1[C@@H](O)c1cc(-c2ncnc3cc(N4CCOCC4)ccc23)c(F)cc1Cl [Example 456, (S)-[2-Chloro-4-fluoro-5-(7-morpholin-4-yl-quinazolin-4-yl)-phenyl]-(3-methoxy-pyrazin-2-yl)-methanol] | < 0.5 µM |
| Cc1cncnc1C(O)c1cc(-c2ncnc3cc(N4CCOCC4)ccc23)ccc1Cl (stereo not shown) [Example 419, [2-Chloro-5-(7-morpholin-4-yl-quinazolin-4-yl)-phenyl]-(5-methyl-pyrimidin-4-yl)-methanol] | 0.5 to 5 µM |

Other lines, results leading:

| IC50 | Compound |
| --- | --- |
| < 0.5 µM | Cc1nccnc1C(O)c1cc(-c2ncnc3cc(N4CCOCC4)ccc23)ccc1Cl (stereo not shown) [Example 428, [2-Chloro-5-(7-morpholin-4-yl-quinazolin-4-yl)-phenyl]-(3-methyl-pyrazin-2-yl)-methanol] |
| < 0.5 µM | OC(c1cc(-c2ncnc3cc(N4CCOCC4)ccc23)ccc1Cl)c1ncnc2ccoc12 (stereo not shown) [Example 415, [2-Chloro-5-(7-morpholin-4-yl-quinazolin-4-yl)-phenyl]furo[3,2-d}-pyrimidin-4-yl-methanol (Ena 1)] |

Same assay, conditions: phospho-serine 2056 DNA-PK, bleomycin-treated HCT116 cells; class symbols A-D; read-out: IC50 pDNA-PK

| IC50 | Compound |
| --- | --- |
| 10 to 30 µM | Cc1nc(C(O)c2cnc(F)c(-c3ncnc4cc(N5CCOCC5)ncc34)c2)sc1C (stereo not shown) [Example 203, (4,5-Dimethyl-thiazol-2-yl)-[6-fluoro-5-(7-morpholin-4-yl-pyrido[4,3-d}-pyrimidin-4-yl)-pyridin-3-yl]-methanol] |
| 0.5 to 5 µM | OC(c1ccc(F)c(-c2ncnc3cc(N4CCOCC4)sc23)c1)c1nccs1 (stereo not shown) [Example 146, [4-Fluoro-3-(6-morpholin-4-yl-thieno[3,2-d}-pyrimidin-4-yl)-phenyl]thiazol-2-yl-methanol] |

Same assay, conditions: phospho-serine 2056 DNA-PK, bleomycin-treated HCT116 cells; read-out: IC50 pDNA-PK

| IC50 | Compound |
| --- | --- |
| 10 to 30 µM | [2H]C1([2H])OC([2H])([2H])C([2H])([2H])N(c2ccc3c(-c4cc(C(O)c5ccc(OC)nn5)c(Cl)cc4F)ncnc3c2)C1([2H])[2H] (stereo not shown) [Example 239, [2-Chloro-4-fluoro-5-[7-(2,2,3,3,5,5,6,6-octadeuterio-morpholin-4-yl)quinazolin-4-yl]phenyl]-(6-methoxypyridazin-3-yl)methanol] |
